For five compounds, inhibition, IC50 and Inhibition results are on record in ChEMBL document CHEMBL1144364, “Synthesis and biological activity of the tea catechin metabolites, M4 and M6 and their methoxy-derivatives” (Bioorg Med Chem Lett, 2005).

Active and inactive are the calls of the source. No cut-off for these calls is given here.

Test [1] deals with HT-29. Kind of test: Percent inhibition of growth of human colon adenocarcinoma cells, HT-29 cells, at 50 uM concentration; NE=No effect. Type of test: functional, cell-based.
Test [2] can be described thus: Percent inhibition of growth of human esophageal squamous cell carcinoma cells, KYSE150 cells, at 50 uM concentration (Range=20-40%). The test is classed as functional. Conditions: KYSE-150.
The species entered for test [3] is Mus musculus. In words: Evaluated to inhibit the release of arachidonic acid and the production of nitric oxide(NO) by lipopolysaccharide (LPS)-stimulated murine macrophages (RAW264.7); NE=No effect. Type of test: functional, organism-based.
Test [4] is described as follows: Percent inhibition of growth of an immortalized rat intestinal epithelial cell line, IEC-6 cell line. The test is classed as functional.
Test [5] relates to HCT-116. Kind of test: Percent inhibition of growth of human colon adenocarcinoma cells, HCT116 cells. The test is classed as functional.
Test [6] concerns INT-407 (Homo sapiens). Kind of test: Percent inhibition of growth of an immortalized human intestinal epithelial cells, INT-407 cells.
In test [7] the test system is HT-29. In words: Percent inhibition of growth of human colon adenocarcinoma cells, HT-29 cells. The test is classed as functional.
The nature of test [8]: Percent inhibition of growth of human esophageal squamous cell carcinoma cells, KYSE150 cells. The test is classed as functional.
A short description of test [9]: Inhibitory concentration against an immortalized rat intestinal epithelial cell line, IEC-6 cell line (Range=15-73). Type of test: functional, cell-based.
Test [10] relates to HCT-116. In words: Inhibitory concentration against human colon adenocarcinoma cells, HCT116 cells (Range=15-73). The test is classed as functional, cell-based.
The subject of test [11] is INT-407 (Homo sapiens). In words: Inhibitory concentration against an immortalized human intestinal epithelial cells, INT-407 cells (Range=15-73). Conditions: epithelial cell.
A short description of test [12]: Inhibitory concentration against human esophageal squamous cell carcinoma cells, KYSE150 cells (Range=15-73). The test is classed as functional.
Test [13] has as its system HT-29. Kind of test: Inhibitory concentration against human colon adenocarcinoma cells, HT-29 cells (Range=15-73). Type of test: functional, cell-based.
For test [14], the species on record is Mus musculus. In words: Evaluated to inhibit the release of arachidonic acid and the production of nitric oxide(NO) by lipopolysaccharide (LPS)-stimulated murine macrophages (RAW264.7). Type of test: functional, organism-based.

In the case of `COc1ccc(CC2CCC(=O)O2)cc1OC` (stereo not drawn), in the test on HT-29 [1], the inhibition (in general, the change of the read-out against control, counted positive when it falls) is “inactive”. Also, the inhibition at 50 µM in test [2] amounted to 40%.
`COc1cc(CC2CCC(=O)O2)cc(OC)c1OC` (stereo not drawn): the concentration for half-maximal inhibition (IC50) (as a rule, the concentration needed to halve the response being measured) in the test filed under Mus musculus [3] is “Not Active”. Further, the Inhibition (in [4]; in the test with HCT-116 [5]; with INT-407 (Homo sapiens) [6]; with HT-29 [7]; in test [8]) was less than 20% in each case.
For `COc1ccc(CC2CCC(=O)O2)cc1O` (stereo not drawn), the inhibition entry with HT-29 [1] is “inactive”. The same compound gave an inhibition at 50 µM in test [2] of 40%.
On to `O=C1CCC(Cc2cc(O)c(O)c(O)c2)O1` (stereo not drawn), for which the 50% inhibitory concentration (IC50) in [9] was 73 µM; in the test on HCT-116 [10], 73 µM; in the test on INT-407 (Homo sapiens) [11], 73 µM; in test [12], 73 µM; with HT-29 [13], 73 µM; in the test filed under Mus musculus [14] it was 20 µM.
In the case of `O=C1CCC(Cc2ccc(O)c(O)c2)O1` (stereo not drawn), in the test with HT-29 [1], the inhibition result is “inactive”. At 50 µM the inhibition in test [2] was 40%.
